In ChEMBL document CHEMBL1128696, “Hydroxylated aromatic inhibitors of HIV-1 integrase” (J Med Chem, 1995):

Biological target: Human immunodeficiency virus type 1 integrase (Human immunodeficiency virus 1, UniProt Q7ZJM1)
Test: In vitro inhibitory activity against HIV-1 integrase.

Chain of Human immunodeficiency virus type 1 integrase (Q7ZJM1 whole entry): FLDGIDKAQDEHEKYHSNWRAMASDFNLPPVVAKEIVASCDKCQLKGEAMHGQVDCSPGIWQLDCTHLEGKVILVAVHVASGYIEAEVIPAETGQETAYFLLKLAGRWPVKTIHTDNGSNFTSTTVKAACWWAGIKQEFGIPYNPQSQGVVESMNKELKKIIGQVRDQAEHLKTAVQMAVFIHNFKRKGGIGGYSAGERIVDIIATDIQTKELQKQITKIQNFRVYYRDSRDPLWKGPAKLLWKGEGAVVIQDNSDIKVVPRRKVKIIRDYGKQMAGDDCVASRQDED

IC50 [µM] | Structure (SMILES)
2 | O=C(/C=C/c1cc(O)c(O)c(O)c1)OCCc1ccccc1
4 | O=C(CCc1ccc(O)c(O)c1)NCCc1cc(O)c(O)c(O)c1
14 | COC(=O)c1cc2ccc(O)c(O)c2cn1
7 | O=C(/C=C/c1ccc(O)c(O)c1)OCCc1ccccc1 [CAFFEIC ACID PHENETHYL ESTER]
> 100 | O=C(CCc1ccc(O)c(O)c1)NCCc1ccccc1
11 | O=C(CCc1ccc(O)c(O)c1)OCCc1ccccc1
> 100 | O=C(CCc1ccccc1)NCCc1ccc(O)c(O)c1
> 100 | CCOC(=O)/C=C/c1ccc(O)c(O)c1 [ETHYL CAFFEATE]
18 | O=C(OCCc1ccccc1)c1ccc2c(O)c(O)ccc2c1
> 100 | N#C/C(=C\c1ccc(O)c(O)c1)C(N)=O
55 | O=C(/C=C/c1cc(O)c(O)cc1O)OCCc1ccccc1
> 100 | O=C(NCc1ccccc1)c1cc2cc(O)c(O)cc2cn1
> 100 | O=C(Cc1ccccc1)NCCc1ccc(O)c(O)c1
> 100 | O=C(/C=C/c1cc(O)ccc1O)OCCc1ccccc1
> 100 | COc1cc(/C=C/C(=O)OCCc2ccccc2)ccc1O
93 | N=c1oc2c(O)c(O)ccc2cc1C(N)=O

IC50 [µM] | Structure (SMILES)
> 100 | O=C(/C=C/c1ccc(F)c(F)c1)OCCc1ccccc1
8 | O=C(/C=C/c1ccc(O)c(O)c1)OCCCc1ccccc1
> 100 | COC(=O)/C=C/c1ccc(O)c(O)c1 [METHYLCAFFEATE]
15 | O=C(/C=C/c1ccc(O)c(O)c1)OCCc1cccc2ccccc12
> 100 | COc1ccc(/C=C/C(=O)OCCc2ccccc2)cc1OC
60 | COc1ccc(/C=C/C(=O)OCCc2ccccc2)cc1O
44 | O=C(/C=C/c1ccc(O)c(O)c1)OCCc1ccc2ccccc2c1
40 | O=C(NCCc1ccccc1)c1cc2ccc(O)c(O)c2cn1
68 | O=C(OCCc1ccccc1)c1ccc2cc(O)c(O)cc2c1
8 | COC(=O)c1ccc2c(O)c(O)ccc2c1
3 | O=C(CCc1ccc(O)c(O)c1)NCCc1ccc(O)c(O)c1
75 | O=C(NCc1ccccc1)c1cc2ccc(O)c(O)c2cn1
9 | O=C(/C=C/c1ccc(O)c(O)c1)OCc1ccccc1 [BENZYL CAFFEATE]
> 100 | COC(=O)c1cc2cc(O)c(O)cc2cn1
2 | O=C(/C=C/c1ccc(O)c(O)c1O)OCCc1ccccc1
48 | N=c1oc2cc(O)c(O)cc2cc1C(N)=O
